Test results published in ChEMBL document CHEMBL1201862, “PubChem BioAssay data set” (2004).
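Briefly, cells in 96-well plates were exposed to five compound concentrations for 48 h, and endpoints were estimated by linear interpolation. The concentration for 50% growth inhibition is given as GI50.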 Activity calls are given as the source filed them. Cut-off read from the data, not from the text of the source: active = GI50 up to about 1.1 µM and inactive = higher.

Experiments:
Assay in all cases: NCI tumour cell line growth inhibition, 48 h
SF-268 = test system: SF-268
OVCAR-8 = test system: OVCAR-8
HL-60 = test system: HL-60
SK-MEL-2 = test system: SK-MEL-2
UO-31 = test system: UO-31
MOLT-4 = test system: MOLT-4
OVCAR-4 = test system: OVCAR-4
COLO 205 = test system: COLO 205
SK-OV-3 = test system: SK-OV-3
HCT-116 = test system: HCT-116
A549 = test system: A549
786-0 = test system: 786-0
KM12 = test system: KM12
TK-10 = test system: TK-10
IGROV-1 = test system: IGROV-1
RXF 393 = test system: RXF 393

Measured: GI50

Cc1ccc(NC(=O)CC(=O)n2nc(C)c(/N=N/c3ccccc3C(=O)O)c2C)cc1
inactive: SF-268 > 100 µM | OVCAR-8 > 100 µM | HL-60 > 100 µM | SK-MEL-2 > 100 µM | UO-31 > 100 µM | MOLT-4 > 100 µM | OVCAR-4 > 100 µM | COLO 205 > 100 µM | SK-OV-3 > 100 µM | HCT-116 > 100 µM | A549 > 100 µM | 786-0 > 100 µM | KM12 > 100 µM | TK-10 > 100 µM | IGROV-1 > 100 µM

Cn1nc(-c2ccccc2)c(C(=O)/C=C/c2ccccc2)c(N2CCOCC2)c1=O
inactive: SF-268 16.9 µM | OVCAR-8 28.4 µM | HL-60 12.8 µM | UO-31 14.9 µM | RXF 393 12.6 µM | MOLT-4 13.2 µM | COLO 205 19.5 µM | SK-OV-3 27.6 µM | HCT-116 14.4 µM | A549 20.3 µM | 786-0 14.2 µM | TK-10 32.8 µM | IGROV-1 23.4 µM

CN(C)c1snc2c1c(=O)n(C)c(=O)n2C
inactive: SF-268 > 100 µM | OVCAR-8 > 100 µM | HL-60 > 100 µM | SK-MEL-2 > 100 µM | UO-31 > 100 µM | MOLT-4 > 100 µM | OVCAR-4 > 100 µM | COLO 205 > 100 µM | SK-OV-3 > 100 µM | HCT-116 > 100 µM | A549 > 100 µM | 786-0 > 100 µM | TK-10 > 100 µM | IGROV-1 > 100 µM

OC1c2ccccc2C2C(O)c3ccccc3C12 (configuration not stated)
inactive: SF-268 > 100 µM | OVCAR-8 > 100 µM | HL-60 > 100 µM | SK-MEL-2 > 100 µM | UO-31 > 100 µM | RXF 393 > 100 µM | MOLT-4 > 100 µM | OVCAR-4 > 100 µM | COLO 205 > 100 µM | SK-OV-3 > 100 µM | A549 > 100 µM | 786-0 > 100 µM | KM12 > 100 µM | TK-10 > 100 µM | IGROV-1 > 100 µM

N#Cc1c(N)oc2cc3c(C#N)c(N)oc3cc12
inactive: SF-268 > 100 µM | OVCAR-8 > 100 µM | HL-60 > 100 µM | SK-MEL-2 > 100 µM | UO-31 > 100 µM | RXF 393 > 100 µM | MOLT-4 > 100 µM | OVCAR-4 > 100 µM | COLO 205 > 100 µM | SK-OV-3 > 100 µM | A549 > 100 µM | 786-0 > 100 µM | KM12 > 100 µM | TK-10 > 100 µM | IGROV-1 > 100 µM
